Among the data in ChEMBL document CHEMBL4477252, “Optimization of microtubule affinity regulating kinase (MARK) inhibitors with improved physical properties” (Bioorg Med Chem Lett, 2016) are IC50 values, retold here.

Assay [1] addresses Tyrosine-protein kinase JAK1 (Homo sapiens, UniProt P23458). As to the kind of experiment: Inhibition of recombinant human GST-tagged cytoplasmic JAK1 (866 to 1154 residues) catalytic domain expressed in baculovirus expression system by Z'-LYTE assay.
Assay [2] addresses Dual specificity mitogen-activated protein kinase kinase 1 (Homo sapiens, UniProt Q02750). Description: Inhibition of full-length recombinant human His-tagged MAP2K1 expressed in baculovirus expression system by LanthaScreen assay.
Assay [3] concerns the target Dual specificity protein kinase CLK2 (Homo sapiens, UniProt P49760). Description: Inhibition of recombinant human GST-tagged CLK2 catalytic domain expressed in baculovirus expression system by Z'-LYTE assay.
Assay [4] concerns the target Serine/threonine-protein kinase 26 (Homo sapiens, UniProt Q9P289). Description: Inhibition of full-length recombinant human GST-tagged MST4 expressed in baculovirus expression system by Z'-LYTE assay.
The target of assay [5] is T1, Tyrosine-protein kinase JAK3 (Homo sapiens, UniProt P52333).
T1 sequence (P52333 whole entry): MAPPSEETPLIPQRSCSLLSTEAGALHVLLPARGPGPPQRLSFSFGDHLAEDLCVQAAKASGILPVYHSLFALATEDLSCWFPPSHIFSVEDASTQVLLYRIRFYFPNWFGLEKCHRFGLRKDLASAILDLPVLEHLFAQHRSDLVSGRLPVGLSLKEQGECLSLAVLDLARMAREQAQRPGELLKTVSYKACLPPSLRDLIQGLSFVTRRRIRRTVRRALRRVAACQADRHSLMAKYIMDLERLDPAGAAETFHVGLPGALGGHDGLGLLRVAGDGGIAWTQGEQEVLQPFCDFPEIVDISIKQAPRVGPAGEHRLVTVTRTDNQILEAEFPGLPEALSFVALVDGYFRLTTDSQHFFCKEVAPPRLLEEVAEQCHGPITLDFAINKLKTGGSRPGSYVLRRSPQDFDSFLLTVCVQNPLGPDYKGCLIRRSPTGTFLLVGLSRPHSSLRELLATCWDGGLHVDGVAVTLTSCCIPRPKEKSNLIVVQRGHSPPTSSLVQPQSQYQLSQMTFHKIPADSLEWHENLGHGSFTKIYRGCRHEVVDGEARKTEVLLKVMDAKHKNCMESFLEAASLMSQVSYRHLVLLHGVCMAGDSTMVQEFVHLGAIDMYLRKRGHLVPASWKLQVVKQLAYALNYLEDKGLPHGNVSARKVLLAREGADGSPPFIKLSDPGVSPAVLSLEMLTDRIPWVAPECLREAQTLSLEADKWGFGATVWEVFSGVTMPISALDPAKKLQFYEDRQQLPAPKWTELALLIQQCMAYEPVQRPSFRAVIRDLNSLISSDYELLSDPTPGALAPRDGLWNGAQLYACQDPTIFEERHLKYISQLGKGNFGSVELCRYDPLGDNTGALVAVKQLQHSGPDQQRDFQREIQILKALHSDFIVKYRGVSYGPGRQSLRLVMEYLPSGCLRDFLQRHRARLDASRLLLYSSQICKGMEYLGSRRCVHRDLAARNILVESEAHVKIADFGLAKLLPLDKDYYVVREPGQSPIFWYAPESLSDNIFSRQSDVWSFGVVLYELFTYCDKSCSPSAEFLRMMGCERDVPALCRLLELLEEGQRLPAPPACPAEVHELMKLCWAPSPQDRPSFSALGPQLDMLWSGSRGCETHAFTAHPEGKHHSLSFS
As to the kind of experiment: Inhibition of recombinant human GST-tagged JAK3 catalytic domain expressed in baculovirus expression system by Z'-LYTE assay.

The target of assay [6] is Epidermal growth factor receptor (Homo sapiens, UniProt P00533). Description: Inhibition of recombinant human His-tagged EGFR expressed in mammalian expression system by Z'-LYTE assay.
Chain of Epidermal growth factor receptor (P00533 whole entry): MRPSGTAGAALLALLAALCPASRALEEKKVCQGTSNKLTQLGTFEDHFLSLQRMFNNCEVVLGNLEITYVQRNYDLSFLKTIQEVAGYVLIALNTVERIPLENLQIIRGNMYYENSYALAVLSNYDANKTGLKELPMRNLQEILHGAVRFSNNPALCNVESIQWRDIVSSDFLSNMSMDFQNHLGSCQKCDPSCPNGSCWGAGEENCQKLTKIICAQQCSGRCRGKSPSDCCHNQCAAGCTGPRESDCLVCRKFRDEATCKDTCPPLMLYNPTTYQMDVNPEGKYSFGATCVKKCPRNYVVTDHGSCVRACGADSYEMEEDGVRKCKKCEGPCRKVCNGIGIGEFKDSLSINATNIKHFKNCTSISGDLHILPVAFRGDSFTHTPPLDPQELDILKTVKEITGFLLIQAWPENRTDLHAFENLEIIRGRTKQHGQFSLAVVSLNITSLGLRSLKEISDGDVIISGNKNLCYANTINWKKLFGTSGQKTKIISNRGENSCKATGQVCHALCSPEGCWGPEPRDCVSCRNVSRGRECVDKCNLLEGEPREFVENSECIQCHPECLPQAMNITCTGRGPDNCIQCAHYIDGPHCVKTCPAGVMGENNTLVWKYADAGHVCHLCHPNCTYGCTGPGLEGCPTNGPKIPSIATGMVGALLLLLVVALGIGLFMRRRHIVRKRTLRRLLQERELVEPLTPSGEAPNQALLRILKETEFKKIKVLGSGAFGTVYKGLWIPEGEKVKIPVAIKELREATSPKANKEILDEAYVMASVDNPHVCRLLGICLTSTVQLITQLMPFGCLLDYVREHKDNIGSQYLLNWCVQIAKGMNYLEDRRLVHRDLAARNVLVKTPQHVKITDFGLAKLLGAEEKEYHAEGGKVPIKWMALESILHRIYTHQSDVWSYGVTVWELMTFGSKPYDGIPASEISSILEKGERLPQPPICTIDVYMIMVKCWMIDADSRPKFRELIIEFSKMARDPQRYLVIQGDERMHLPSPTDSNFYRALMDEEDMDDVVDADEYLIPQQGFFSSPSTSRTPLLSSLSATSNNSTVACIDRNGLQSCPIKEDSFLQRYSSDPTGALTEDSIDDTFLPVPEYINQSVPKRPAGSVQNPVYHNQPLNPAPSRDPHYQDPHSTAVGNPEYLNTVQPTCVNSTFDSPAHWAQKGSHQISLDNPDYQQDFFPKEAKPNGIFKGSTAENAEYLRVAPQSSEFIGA
The target of assay [7] is Cyclin-dependent kinase 5/CDK5 activator 1 (Homo sapiens, UniProt Q00535). Description: Inhibition of full-length recombinant human GST and His-tagged CDK5/P25 expressed in baculovirus expression system by Z'-LYTE assay.
Chain of Cyclin-dependent kinase 5/CDK5 activator 1 (Q00535 whole entry): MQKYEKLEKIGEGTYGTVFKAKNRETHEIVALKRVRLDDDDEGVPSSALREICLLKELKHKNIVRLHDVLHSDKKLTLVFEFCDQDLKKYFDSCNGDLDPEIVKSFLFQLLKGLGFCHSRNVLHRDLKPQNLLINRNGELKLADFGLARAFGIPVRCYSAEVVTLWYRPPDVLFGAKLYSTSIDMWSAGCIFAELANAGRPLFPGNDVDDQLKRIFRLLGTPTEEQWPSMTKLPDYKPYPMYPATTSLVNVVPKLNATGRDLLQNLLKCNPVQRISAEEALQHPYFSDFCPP
Chain of Cyclin-dependent kinase 5/CDK5 activator 1 (Q15078 whole entry, further chain): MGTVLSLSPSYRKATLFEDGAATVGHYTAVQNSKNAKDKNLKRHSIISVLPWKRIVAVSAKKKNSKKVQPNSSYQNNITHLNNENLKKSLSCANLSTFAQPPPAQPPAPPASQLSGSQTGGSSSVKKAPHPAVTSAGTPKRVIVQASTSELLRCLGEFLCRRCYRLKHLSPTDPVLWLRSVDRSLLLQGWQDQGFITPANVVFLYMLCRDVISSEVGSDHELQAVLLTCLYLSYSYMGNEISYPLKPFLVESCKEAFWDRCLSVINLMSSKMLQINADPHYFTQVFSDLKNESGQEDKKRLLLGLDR
Assay [8] concerns the target Casein kinase II subunit alpha (Homo sapiens, UniProt P68400). Description: Inhibition of full-length recombinant human His-tagged CSNK2A1 expressed in baculovirus expression system by Z'-LYTE assay.
Assay [9] addresses Serine/threonine-protein kinase N1 (Homo sapiens, UniProt Q16512). As to the kind of experiment: Inhibition of full-length recombinant human GST-tagged PKN1 expressed in baculovirus expression system by Z'-LYTE assay.
Assay [10] deals with Macrophage colony-stimulating factor 1 receptor (Homo sapiens, UniProt P07333). Description: Inhibition of recombinant human His-tagged cytoplasmic CSF1R expressed in baculovirus expression system by Z'-LYTE assay.
In assay [11] the target is G protein-coupled receptor kinase 4 (Homo sapiens, UniProt P32298). Description: Inhibition of full-length recombinant human GST-tagged GRK4 expressed in baculovirus expression system by Z'-LYTE assay.
Assay [12] has as its target PAS domain-containing serine/threonine-protein kinase (Homo sapiens, UniProt Q96RG2). Description: Inhibition of recombinant human GST-tagged PASK catalytic domain expressed in baculovirus expression system by Z'-LYTE assay.
Assay [13] concerns the target Serine/threonine-protein kinase B-raf (Homo sapiens, UniProt P15056). As to the kind of experiment: Inhibition of full-length recombinant human GST-tagged BRAF expressed in baculovirus expression system by Z'-LYTE assay.
The target of assay [14] is T2, Testis-specific serine/threonine-protein kinase 1 (Homo sapiens, UniProt Q9BXA7).
T2 sequence (Q9BXA7 whole entry): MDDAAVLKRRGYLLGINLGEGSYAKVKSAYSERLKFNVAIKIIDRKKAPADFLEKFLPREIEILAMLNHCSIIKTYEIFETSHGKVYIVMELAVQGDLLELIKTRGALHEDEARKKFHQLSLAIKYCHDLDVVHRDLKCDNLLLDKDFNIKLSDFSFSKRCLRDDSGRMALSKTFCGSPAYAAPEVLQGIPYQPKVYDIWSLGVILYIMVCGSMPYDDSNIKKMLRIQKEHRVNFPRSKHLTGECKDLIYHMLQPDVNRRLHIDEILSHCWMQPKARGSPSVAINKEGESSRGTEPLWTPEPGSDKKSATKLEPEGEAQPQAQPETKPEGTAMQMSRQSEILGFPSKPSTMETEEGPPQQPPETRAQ
Description: Inhibition of full-length recombinant human His-tagged STK22D expressed in baculovirus expression system by Z'-LYTE assay.

Assay [15] deals with Tyrosine-protein kinase SYK (Homo sapiens, UniProt P43405). Description: Inhibition of full-length recombinant human N-terminal GST-tagged cytoplasmic SYK expressed in baculovirus expression system by Z'-LYTE assay.

pIC50: −log10 of the molar value.

Chain of PAS domain-containing serine/threonine-protein kinase (Q96RG2 whole entry, the tested form may be a part): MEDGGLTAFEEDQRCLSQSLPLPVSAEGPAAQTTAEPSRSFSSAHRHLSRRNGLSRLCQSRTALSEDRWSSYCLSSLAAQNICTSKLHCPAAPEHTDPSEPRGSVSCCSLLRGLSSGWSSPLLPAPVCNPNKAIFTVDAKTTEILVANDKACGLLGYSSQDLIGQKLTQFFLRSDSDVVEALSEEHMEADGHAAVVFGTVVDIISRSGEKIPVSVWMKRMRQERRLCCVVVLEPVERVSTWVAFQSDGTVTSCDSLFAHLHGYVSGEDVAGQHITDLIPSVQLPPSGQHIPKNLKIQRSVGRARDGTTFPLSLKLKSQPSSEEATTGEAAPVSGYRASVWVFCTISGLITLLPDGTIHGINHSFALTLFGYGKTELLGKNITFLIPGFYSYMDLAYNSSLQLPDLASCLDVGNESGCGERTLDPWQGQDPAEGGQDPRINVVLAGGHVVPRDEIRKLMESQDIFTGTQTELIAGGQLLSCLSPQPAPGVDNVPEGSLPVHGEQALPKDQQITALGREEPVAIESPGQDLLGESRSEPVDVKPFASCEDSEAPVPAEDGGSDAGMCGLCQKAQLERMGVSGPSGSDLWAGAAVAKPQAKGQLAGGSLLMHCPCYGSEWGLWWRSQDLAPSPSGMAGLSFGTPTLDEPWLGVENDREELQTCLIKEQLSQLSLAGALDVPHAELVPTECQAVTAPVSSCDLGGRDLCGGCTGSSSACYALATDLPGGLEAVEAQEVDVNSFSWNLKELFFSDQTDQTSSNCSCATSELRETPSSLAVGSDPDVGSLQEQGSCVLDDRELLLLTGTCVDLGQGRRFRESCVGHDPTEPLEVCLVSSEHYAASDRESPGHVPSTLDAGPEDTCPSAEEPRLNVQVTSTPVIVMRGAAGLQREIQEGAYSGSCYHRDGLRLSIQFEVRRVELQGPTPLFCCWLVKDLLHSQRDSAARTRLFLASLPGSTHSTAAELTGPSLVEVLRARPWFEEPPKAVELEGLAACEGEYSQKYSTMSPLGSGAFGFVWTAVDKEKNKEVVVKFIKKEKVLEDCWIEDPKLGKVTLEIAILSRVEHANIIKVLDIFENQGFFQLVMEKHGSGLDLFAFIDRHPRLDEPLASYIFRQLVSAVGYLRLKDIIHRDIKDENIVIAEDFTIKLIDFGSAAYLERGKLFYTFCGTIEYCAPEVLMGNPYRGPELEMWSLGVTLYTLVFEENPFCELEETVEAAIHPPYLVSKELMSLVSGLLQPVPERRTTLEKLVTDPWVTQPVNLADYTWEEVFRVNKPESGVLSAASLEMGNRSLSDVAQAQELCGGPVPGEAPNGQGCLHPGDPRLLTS
Chain of Tyrosine-protein kinase JAK1 (P23458 whole entry, the tested form may be a part): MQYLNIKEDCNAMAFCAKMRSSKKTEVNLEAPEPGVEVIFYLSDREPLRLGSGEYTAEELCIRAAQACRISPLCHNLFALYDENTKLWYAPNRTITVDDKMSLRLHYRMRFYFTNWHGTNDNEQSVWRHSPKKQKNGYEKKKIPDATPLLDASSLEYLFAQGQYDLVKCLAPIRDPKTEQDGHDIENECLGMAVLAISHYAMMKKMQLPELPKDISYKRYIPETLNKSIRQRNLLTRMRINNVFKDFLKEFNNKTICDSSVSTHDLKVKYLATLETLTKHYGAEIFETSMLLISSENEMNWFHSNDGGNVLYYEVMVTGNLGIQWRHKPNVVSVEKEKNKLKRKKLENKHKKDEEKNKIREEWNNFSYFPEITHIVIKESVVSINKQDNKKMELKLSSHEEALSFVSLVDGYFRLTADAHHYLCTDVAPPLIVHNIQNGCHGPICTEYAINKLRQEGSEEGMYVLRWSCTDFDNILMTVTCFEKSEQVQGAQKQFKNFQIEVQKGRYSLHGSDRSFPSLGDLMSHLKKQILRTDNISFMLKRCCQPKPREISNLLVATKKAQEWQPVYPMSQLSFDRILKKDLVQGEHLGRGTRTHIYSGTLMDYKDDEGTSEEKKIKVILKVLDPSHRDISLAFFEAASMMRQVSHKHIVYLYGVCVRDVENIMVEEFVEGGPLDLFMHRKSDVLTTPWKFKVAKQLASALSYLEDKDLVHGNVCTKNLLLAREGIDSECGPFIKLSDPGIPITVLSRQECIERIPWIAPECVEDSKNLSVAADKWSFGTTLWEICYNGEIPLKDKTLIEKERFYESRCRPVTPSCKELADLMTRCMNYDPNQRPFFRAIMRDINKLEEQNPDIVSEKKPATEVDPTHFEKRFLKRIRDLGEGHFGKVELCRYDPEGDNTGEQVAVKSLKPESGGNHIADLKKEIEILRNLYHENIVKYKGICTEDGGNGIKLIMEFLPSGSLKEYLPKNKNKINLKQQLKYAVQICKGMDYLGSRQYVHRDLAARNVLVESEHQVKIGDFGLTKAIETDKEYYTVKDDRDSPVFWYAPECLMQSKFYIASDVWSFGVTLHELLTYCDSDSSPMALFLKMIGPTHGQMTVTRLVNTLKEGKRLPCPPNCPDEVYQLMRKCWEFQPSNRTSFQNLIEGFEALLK
Chain of Serine/threonine-protein kinase 26 (Q9P289 whole entry): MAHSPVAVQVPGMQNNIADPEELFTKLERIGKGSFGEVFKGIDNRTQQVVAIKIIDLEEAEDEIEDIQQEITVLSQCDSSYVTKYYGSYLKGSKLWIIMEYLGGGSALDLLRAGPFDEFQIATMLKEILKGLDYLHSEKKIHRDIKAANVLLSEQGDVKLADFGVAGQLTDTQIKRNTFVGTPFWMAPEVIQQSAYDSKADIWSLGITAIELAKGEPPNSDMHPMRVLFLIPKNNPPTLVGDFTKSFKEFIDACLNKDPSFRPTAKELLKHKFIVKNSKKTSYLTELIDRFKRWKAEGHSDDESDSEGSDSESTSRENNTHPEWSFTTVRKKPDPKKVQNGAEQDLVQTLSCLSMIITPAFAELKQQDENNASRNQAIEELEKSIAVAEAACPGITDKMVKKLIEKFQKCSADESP

Regarding `Cn1cc(-c2cnc3c(-c4csc(C(=O)NCC(F)(F)F)c4)cnn3c2)cn1`, the negative-log IC50 (pIC50) – broadly, the IC50 on a negative log10 scale, so that one unit is a factor of ten – in assay [1] is 5.38; in [2], 4.92; in [3], > 8.00; in assay [4], 6.54; in [5], 6.37; in assay [6], 4.55. Further, the pIC50 was > 8.00 in [7]; < 4.00 in [8]; 4.74 in assay [9]; 7.00 in assay [10]; 4.72 in assay [11]; < 4.00 in assay [12]. Moreover, the negative-log IC50 (pIC50) in assay [13] was 5.82; in assay [14] it was 7.70; in assay [15], 6.12.
Take `Cc1sc(C(=O)N[C@@H]2[C@H](N)CCCC2(F)F)cc1-c1cnn2cc(Cl)cnc12`: the pIC50 in assay [1] was 5.37; in [2], 5.96; in assay [3], 6.96; in assay [4] it was 6.77; in [5] it was 5.89; in assay [6], < 4.00. The negative-log IC50 (pIC50) in [7] was 7.21; in assay [8], < 4.00; in assay [9], 4.77; in assay [10], 4.66; in assay [11], 6.17; in assay [12], 5.85. Also, the results for the pIC50 in assay [13], in assay [14] and in assay [15] were 5.96, > 8.00 and 4.92, respectively.
As to `O=C(NCC(F)(F)F)c1cc(-c2cnn3cc(-c4ccc(OCCN5CCCCC5)cc4)cnc23)cs1`, the negative logarithm of the IC50 (pIC50) in assay [1] was 5.64; in assay [2] it was 5.14; in assay [3], > 8.00; in assay [4], 5.96; in assay [5], 6.55; in assay [6], 5.96. For the same compound, the negative logarithm of the IC50 (pIC50) in [7] was 7.72; in assay [8] it was 5.08; in [9], 5.41; in [10] it was 7.39; in assay [11], 5.28; in [12], 4.43. For the same compound, the pIC50 in [13] was 6.26; in assay [14], > 8.00; in assay [15], 6.36.
As to `Cn1cc(-c2cnc3c(-c4csc(C(=O)N[C@@H]5CCCC[C@@H]5N)c4)cnn3c2)cn1` (racemic), the negative-log IC50 (pIC50) was 6.66 in [1]; 6.92 in assay [2]; 7.85 in assay [3]; 8.20 in assay [4]; 7.48 in assay [5]; 6.47 in assay [6]. For the same compound, the pIC50 was 8.36 in [7]; < 5.00 in assay [8]; 6.60 in assay [9]; 8.48 in [10]; 6.59 in assay [11]; 5.82 in [12]. Besides, the results for the pIC50 in assay [13], in assay [14] and in [15] were 7.72, > 9.00 and 7.38, respectively.
